Assay results reported in patent publication US11970474B2, “Substituted benzodiazoles and use thereof in therapy” (THOMAS HELLEDAYS STIFTELSE FÖR MEDICINSK FORSKNING, priority 2018, dated 2024).

target: OGG1 (Homo sapiens (Human), UniProt O15527); experiment: In vitro OGG1 activity assay; format: biochemical; details: 800 pM OGG1 enzyme, 2 nM human APEX1, 10 nM 8-oxoA:C substrate
Method: Method 1: In Vitro OGG1 Activity Assay OGG1 activity is assayed by measuring the increase in fluorescence from a duplex oligonucleotide containing an OGG1 substrate and a fluorophore in close proximity that are quenched by a quencher on the complementary strand. […] OGG1 activity releases the substrate base from DNA by cleaving the N-glycosidic bond between base and deoxyribose. The resulting apurinic site is cleaved by an excessive amount APEX1 activity which cause the duplex to melt, which in turn cause the fluorophore to become unquenched. Compounds to be tested are dissolved in DMSO and nano-dispensed directly into black 384-well plates, followed by transfer of enzyme and substrate solutions. […] The fluorescent signal is recorded in a plate reader equipped with suitable filters to register fluorescein fluorescence.

OGG1, sequence (O15527 whole entry): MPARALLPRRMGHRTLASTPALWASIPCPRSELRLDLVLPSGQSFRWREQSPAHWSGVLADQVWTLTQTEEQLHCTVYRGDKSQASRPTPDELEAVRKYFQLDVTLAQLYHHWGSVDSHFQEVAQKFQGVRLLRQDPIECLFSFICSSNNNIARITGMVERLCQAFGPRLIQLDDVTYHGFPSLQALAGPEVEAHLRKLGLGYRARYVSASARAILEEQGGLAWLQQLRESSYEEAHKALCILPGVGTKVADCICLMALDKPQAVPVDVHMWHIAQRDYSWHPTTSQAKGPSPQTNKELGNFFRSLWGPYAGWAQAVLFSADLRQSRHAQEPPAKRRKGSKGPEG

Structure (SMILES) | IC50
N#Cc1ccc(NC(=O)[C@H]2CC[C@@H](n3c(=O)[nH]c4c(Br)cccc43)CC2)cc1Cl [Example 125, (Cis)-4-(4-bromo-2-oxo-2,3-dihydro-1H-1,3-benzodiazol-1-yl)-N-(3-chloro-4-cyanophenyl)cyclohexane-1-carboxamide] | 3620 nM
N#Cc1ccc(NC(=O)[C@H]2CC[C@@H](n3c(=O)[nH]c4c(Br)cccc43)CC2)cc1 [Example 132, (Cis)-4-(4-bromo-2-oxo-2,3-dihydro-1H-1,3-benzodiazol-1-yl)-N-(4-cyanophenyl)cyclohexane-1-carboxamide] | 6830 nM
O=c1[nH]c2c(Br)cccc2n1[C@H]1CC[C@@H](C(=O)Nc2ccc(C(F)(F)F)cc2)CC1 [Example 133, (Cis)-4-(4-bromo-2-oxo-2,3-dihydro-1H-1,3-benzodiazol-1-yl)-N-[4-(trifluoromethyl)phenyl]cyclohexane-1-carboxamide] | 865 nM
O=c1[nH]c2c(Br)cccc2n1[C@H]1CC[C@@H](C(=O)Nc2ccc(OC(F)(F)F)c(Cl)c2)CC1 [Example 134, (Cis)-4-(4-bromo-2-oxo-2,3-dihydro-1H-1,3-benzodiazol-1-yl)-N-[3-chloro-4-(trifluoromethoxy)phenyl]cyclohexane-1-carboxamide] | 2740 nM
O=c1[nH]c2c(Br)cccc2n1[C@H]1CC[C@@H](C(=O)Nc2ccc(C(F)(F)F)c(F)c2)CC1 [Example 137, (Cis)-4-(4-bromo-2-oxo-2,3-dihydro-1H-1,3-benzodiazol-1-yl)-N-[3-fluoro-4-(trifluoromethyl)phenyl]cyclohexane-1-carboxamide] | 2030 nM
O=c1[nH]c2c(Br)cccc2n1[C@H]1CC[C@@H](C(=O)Nc2cccc(Cl)c2)CC1 [Example 138, (Cis)-4-(4-bromo-2-oxo-2,3-dihydro-1H-1,3-benzodiazol-1-yl)-N-(3-chlorophenyl)cyclohexane-1-carboxamide] | 2010 nM
O=c1[nH]c2c(Br)cccc2n1[C@H]1CC[C@@H](C(=O)Nc2cccc(C(F)(F)F)c2)CC1 [Example 141, (Cis)-4-(4-bromo-2-oxo-2,3-dihydro-1H-1,3-benzodiazol-1-yl)-N-[3-(trifluoromethyl)phenyl]cyclohexane-1-carboxamide] | 5480 nM
O=c1[nH]c2c(Br)cccc2n1[C@H]1CC[C@@H](C(=O)Nc2cccc3[nH]ccc23)CC1 [Example 145, (Cis)-4-(4-bromo-2-oxo-2,3-dihydro-1H-1,3-benzodiazol-1-yl)-N-(1H-indol-4-yl)cyclohexane-1-carboxamide] | 1080 nM
COc1cc(F)cc(NC(=O)[C@H]2CC[C@@H](n3c(=O)[nH]c4c(Br)cccc43)CC2)c1 [Example 155, (Cis)-4-(4-bromo-2-oxo-2,3-dihydro-1H-1,3-benzodiazol-1-yl)-N-(3-fluoro-5-methoxyphenyl)cyclohexane-1-carboxamide] | 1820 nM
N#Cc1cc(NC(=O)[C@H]2CC[C@@H](n3c(=O)[nH]c4c(Br)cccc43)CC2)ccc1Cl [Example 157, (Cis)-4-(4-bromo-2-oxo-2,3-dihydro-1H-1,3-benzodiazol-1-yl)-N-(4-chloro-3-cyanophenyl)cyclohexane-1-carboxamide] | 152 nM
COc1cc(NC(=O)[C@H]2CC[C@@H](n3c(=O)[nH]c4c(Br)cccc43)CC2)cc(C(F)(F)F)c1 [Example 158, (Cis)-4-(4-bromo-2-oxo-2,3-dihydro-1H-1,3-benzodiazol-1-yl)-N-[3-methoxy-5-(trifluoromethyl)phenyl]cyclohexane-1-carboxamide] | 6050 nM
O=c1[nH]c2c(Br)cccc2n1[C@H]1CC[C@@H](C(=O)Nc2ccc(F)c(Cl)c2)CC1 [Example 162, (Cis)-4-(4-bromo-2-oxo-2,3-dihydro-1H-1,3-benzodiazol-1-yl)-N-(3-chloro-4-fluorophenyl)cyclohexane-1-carboxamide] | 1290 nM
COc1cc(Cl)cc(NC(=O)[C@H]2CC[C@@H](n3c(=O)[nH]c4c(Br)cccc43)CC2)c1 [Example 163, (Cis)-4-(4-bromo-2-oxo-2,3-dihydro-1H-1,3-benzodiazol-1-yl)-N-(3-chloro-5-methoxyphenyl)cyclohexane-1-carboxamide] | 3160 nM
Cc1cc(NC(=O)[C@H]2CC[C@@H](n3c(=O)[nH]c4c(Br)cccc43)CC2)no1 [Example 169, (Cis)-4-(4-bromo-2-oxo-2,3-dihydro-1H-1,3-benzodiazol-1-yl)-N-(5-methyl-1,2-oxazol-3-yl)cyclohexane-1-carboxamide] | 9090 nM
Cn1cc(NC(=O)[C@H]2CC[C@@H](n3c(=O)[nH]c4c(Br)cccc43)CC2)cn1 [Example 170, (Cis)-4-(4-bromo-2-oxo-2,3-dihydro-1H-1,3-benzodiazol-1-yl)-N-(1-methyl-1H-pyrazol-4-yl)cyclohexane-1-carboxamide] | 8800 nM

Other lines, results leading:

IC50 | Structure (SMILES)
2530 nM | COc1ccc(NC(=O)N2CCC(n3c(=O)[nH]c4c(N5Cc6cn[nH]c6C5)cccc43)CC2)cc1Cl [Example 108, N-(3-chloro-4-methoxyphenyl)-4-(2-oxo-4-{1H,4H,5H,6H-pyrrolo[3,4-c]pyrazol-5-yl}-2,3-dihydro-1H-1,3-benzodiazol-1-yl)piperidine-1-carboxamide]
6460 nM | O=C(Nc1cnc(Cl)c(Cl)c1)N1CCC(n2c(=O)[nH]c3c(Br)cccc32)CC1 [Example 109, 4-(4-Bromo-2-oxo-2,3-dihydro-1H-1,3-benzodiazol-1-yl)-N-(5,6-dichloropyridin-3-yl)piperidine-1-carboxamide]
5810 nM | Cc1nc(NC(=O)N2CCC(n3c(=O)[nH]c4c(Br)cccc43)CC2)ccc1Cl [Example 111, 4-(4-Bromo-2-oxo-2,3-dihydro-1H-1,3-benzodiazol-1-yl)-N-(5-chloro-6-methylpyridin-2-yl)piperidine-1-carboxamide]
4940 nM | CC1CC(n2c(=O)[nH]c3c(Br)cccc32)CCN1C(=O)Nc1ccc(Cl)c(Cl)c1 (stereo not shown) [Example 112, 4-(4-Bromo-2-oxo-2,3-dihydro-1H-benzo[d]imidazol-1-yl)-N-(3,4-dichlorophenyl)-2-methylpiperidine-1-carboxamide]
3200 nM | CC1CN(C(=O)Nc2ccc(Cl)c(Cl)c2)CCC1n1c(=O)[nH]c2c(Br)cccc21 (stereo not shown) [Example 113, 4-(4-Bromo-2-oxo-2,3-dihydro-1H-benzo[d]imidazol-1-yl)-N-(3,4-dichlorophenyl)-3-methylpiperidine-1-carboxamide]
690 nM | COc1cc(NC(=O)N2CCC(n3c(=O)[nH]c4c(Cl)cccc43)CC2)ccc1C [Example 114, 4-(4-Chloro-2-oxo-2,3-dihydro-1H-1,3-benzodiazol-1-yl)-N-(3-methoxy-4-methylphenyl)piperidine-1-carboxamide]
1430 nM | COc1cc(NC(=O)N2CCC(n3c(=O)[nH]c4c(C)cccc43)CC2)ccc1C [Example 115, N-(3-methoxy-4-methylphenyl)-4-(4-methyl-2-oxo-2,3-dihydro-1H-1,3-benzodiazol-1-yl)piperidine-1-carboxamide]
2060 nM | COc1cc(NC(=O)N2CCC(n3c(=O)[nH]c4c(OC)cccc43)CC2)ccc1C [Example 116, 4-(4-Methoxy-2-oxo-2,3-dihydro-1H-1,3-benzodiazol-1-yl)-N-(3-methoxy-4-methylphenyl)piperidine-1-carboxamide]
1200 nM | Cc1cccc(NC(=O)[C@H]2CC[C@@H](n3c(=O)[nH]c4c(Br)cccc43)CC2)c1 [Example 143, (Cis)-4-(4-bromo-2-oxo-2,3-dihydro-1H-1,3-benzodiazol-1-yl)-N-(3-methylphenyl)cyclohexane-1-carboxamide]
983 nM | Cc1ccc(NC(=O)[C@H]2CC[C@@H](n3c(=O)[nH]c4c(Br)cccc43)CC2)cc1C(F)(F)F [Example 144, (Cis)-4-(4-bromo-2-oxo-2,3-dihydro-1H-1,3-benzodiazol-1-yl)-N-[4-methyl-3-(trifluoromethyl)phenyl]cyclohexane-1-carboxamide]
173 nM | COc1ccc(NC(=O)[C@H]2CC[C@@H](n3c(=O)[nH]c4c(Br)cccc43)CC2)c(F)c1 [Example 156, (Cis)-4-(4-bromo-2-oxo-2,3-dihydro-1H-1,3-benzodiazol-1-yl)-N-(2-fluoro-4-methoxyphenyl)cyclohexane-1-carboxamide]
4940 nM | COc1cc(NC(=O)[C@H]2CC[C@@H](n3c(=O)[nH]c4c(Br)cccc43)CC2)ccc1C#N [Example 159, (Cis)-4-(4-bromo-2-oxo-2,3-dihydro-1H-1,3-benzodiazol-1-yl)-N-(4-cyano-3-methoxyphenyl)cyclohexane-1-carboxamide]
175 nM | COc1ccc(NC(=O)[C@H]2CC[C@@H](n3c(=O)[nH]c4c(Br)cccc43)CC2)cc1C#N [Example 161, (Cis)-4-(4-bromo-2-oxo-2,3-dihydro-1H-1,3-benzodiazol-1-yl)-N-(3-cyano-4-methoxyphenyl)cyclohexane-1-carboxamide]
1390 nM | COc1cccc(NC(=O)[C@H]2CC[C@@H](n3c(=O)[nH]c4c(Br)cccc43)CC2)c1 [Example 165, (Cis)-4-(4-bromo-2-oxo-2,3-dihydro-1H-1,3-benzodiazol-1-yl)-N-(3-methoxyphenyl)cyclohexane-1-carboxamide]
3890 nM | Cc1cccc(NC(=O)[C@H]2CC[C@@H](n3c(=O)[nH]c4c(Br)cccc43)CC2)c1C [Example 167, (Cis)-4-(4-bromo-2-oxo-2,3-dihydro-1H-1,3-benzodiazol-1-yl)-N-(2,3-dimethylphenyl)cyclohexane-1-carboxamide]
7790 nM | COc1ccc2c(c1)[nH]c(=O)n2C1CCN(C(=O)Nc2ccc(OC)c(Cl)c2)CC1 [Example 172, N-(3-Chloro-4-methoxyphenyl)-4-(5-methoxy-2-oxo-2,3-dihydro-1H-1,3-benzodiazol-1-yl)piperidine-1-carboxamide]
